This passage reports outcome, EC50 and IC50 results from PubChem BioAssay AID179 (DTP/NCI, 2004).

This test relates to CEM cells HIV-1 protection, formazan growth assay. Kind of test: NCI AIDS Antiviral Assay. The settings on record: for pIC50: measured here: growth of uninfected CEM cells. The procedure, abridged:
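Human CEM cells, uninfected and HIV-1-infected, received five drug concentrations, and growth was read by soluble formazan assay. Compounds giving at least 50% protection were retested; reproducible 100% protection defined confirmed active.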

pEC50, pIC50: −log10 of the molar value. “And” between values parts separate entries of the source, which are not always exact repeats. Equal values may be shown once. The source made the active and inactive calls.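 The calls were made as follows: active = compounds giving half or more protection of infected cells from virus-caused growth loss, again on retest; inactive = the rest.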 Where a SMILES comes first, the peptide text is derived from it. The star is where a group is joined. Boc = CC(C)(C)OC(=O)* Where only a bound is given, the exact number is not on record here.

As to `O=C1C=Cc2noc3cccc1c23`, the result was inactive.
As to `COc1ccccc1/C=C(\NC(=O)c1ccccc1)C(=O)NC(C)C`, the pEC50 was under 3.70 and the negative-log IC50 (pIC50) was under 3.70.
In the case of `O=C(NC(=Nc1ccccc1)SCSC(=Nc1ccccc1)NC(=O)c1ccccc1Cl)c1ccccc1Cl`, the pEC50 was under 3.70 and the pIC50 was 4.51.
On to `COc1ccc(C2N(c3ccc(C)c(N=C=O)c3)C(=O)N3C(c4ccc(OC)cc4)N(c4ccc(C)c(N=C=O)c4)C(=O)N23)cc1` (centres undefined), for which the pEC50 was under 3.70 and the pIC50 is 4.90.
For the compound `O=C(O)CN1CCN2CCOCCN(CC1)CCN(CC(=O)O)CC2`, the pEC50 was under 3.70 and the pIC50 was under 3.70.
As for `COC(=O)C(Cc1c[nH]c2ccccc12)NC(=O)C(Cc1c[nH]c2ccccc12)NC(=O)C(Cc1c[nH]c2ccccc12)NC(=O)OC(C)(C)C` (stereo not drawn) (Boc-Trp-Trp-Trp-OMe; configuration not given here), the pEC50 was under 3.70 and the pIC50 was 4.53.
On to `COC(=O)c1ccccc1NC(=O)/C(=N\NC(C)(C)C)C(C#N)c1nc(-c2ccc([N+](=O)[O-])cc2)cs1` (centres undefined), for which the pEC50 was under 4.16 and the pIC50 was under 4.16.
Regarding `C(=C\c1ccccc1)/COc1ccccc1C(N1CCOCC1)n1nc2ccccc2n1` (centres undefined), the pEC50 is under 3.70 and the pIC50 was 5.17.
Turning to `CN(CN(C)/N=C/c1ccc(Cl)cc1)/N=C/c1ccc(Cl)cc1`, the outcome was inactive.
Take `O=C1N[C@H]2c3c(Cl)sc(Cl)c3/C(=N/O)[C@H]2O1`: the pEC50 was under 3.70 and the pIC50 is 4.02.
For the compound `COc1cc(OC)c2c(=O)c3cccc(C)c3n(C)c2c1`, the pEC50 was under 3.70 and the negative-log IC50 (pIC50) was 4.02.
Regarding `Cc1ccc(N(C(=O)Nc2ccc(F)c(Cl)c2)C2=NCC(C)S2)cc1` (centres undefined), the pEC50 is under 3.70 and the pIC50 was 3.73.
On the same counts, the results for `O=C1CCCCCN1C(=O)c1ccccc1` are under 2.94 and 4.27.
With `COC(=O)/C=C1/C2CC3CC(C2)C(O)C1C3` (centres undefined), the result was inactive.
With `CCOC(=O)C#CCCOC1CCCCO1` (centres undefined), the pEC50 was under 3.86 and the pIC50 was 3.95.
On to `CCOC(=O)C1=C(Nc2ccc(Cl)cc2Cl)OCC1=O`, for which the result was inactive.
For the compound `O=C(Nc1ccccc1Cl)c1cc2cc(N=Nc3ccc(Br)cc3)ccc2oc1=O`, the outcome was inactive.
For `Cc1nc2ccc(NC3OCC(O)C(O)C3O)cc2c(=O)n1-c1ccccc1` (centres undefined), the pEC50 was under 3.70 and the pIC50 was 3.94.
With `O=C(OCCN1CCCCCC1)C(c1ccsc1)C1CCCCC1` (centres undefined), the pEC50 was under 3.70 and the pIC50 is 4.45.
Regarding `CCOP(=O)(OCC)C1CCCOC1=O` (centres undefined), the outcome was inactive.
On to `CO[C@H]1[C@H](O)[C@H](O[C@H]2CC[C@@]3(C)[C@H](CC[C@@H]4[C@@H]3CC[C@]3(C)[C@@H](C5=CC(=O)OC5)CC[C@]43O)C2)O[C@@H](C)[C@@H]1O`, for which the outcome was inactive.
For `CCSC1=N/C(=C\c2ccco2)C(NN)=N1`, the pEC50 was under 4.30 and the pIC50 is under 4.30.
Take `C=CC(C)C1(CCCOCc2ccccc2)C(=S)N2CCC3(CC24CCCC14)OCCO3` (centres undefined): the result was inactive.
Turning to `N#Cc1nc(CCC(c2nc(C#N)c(N)o2)N2C(=O)c3ccccc3C2=O)oc1N` (centres undefined), the pEC50 was under 3.70 and the pIC50 is under 3.70.
Consider `CCOC(=O)/C=C1/SC(N2CCCCC2)C(=O)N1CC` (centres undefined), for which the pEC50 is under 3.78 and the negative-log IC50 (pIC50) was under 3.78.
With `O=C(/C=C/c1c(O)ccc2ccccc12)c1ccccc1Cl`, the pEC50 was under 4.25 and the pIC50 was 4.55.
Take `O=S1c2ccccc2NC(c2ccc3ccccc3c2)CC1c1ccccc1` (centres undefined): the pEC50 was under 5.15 and the pIC50 was under 5.15.
`Cc1cn(C2CC(O)C(COC(=O)CCCCCCCCCCBr)O2)c(=O)[nH]c1=O` (centres undefined): the pEC50 is under 3.99 and the pIC50 was 4.27.
For `COc1ccc(N=NC(=O)NC(CC(C)C)C(=O)NCC(=O)O)cc1` (centres undefined), the pEC50 is under 3.70 and the pIC50 is 5.43.
Regarding `O=C1N2CCCSC2=NC1(c1ccccc1)c1ccccc1`, the result was inactive.
Consider `N#CC(=C(c1ccccc1)c1ccccc1)c1ccccc1`, for which the pEC50 is under 3.82 and the negative-log IC50 (pIC50) is under 3.82.
`Cc1c(C)c2c(c(N)c1C#N)C(=O)N(NC(=S)Nc1ccccc1)C2=O`: the pEC50 is under 3.70 and the pIC50 is 3.80.
As to `CC1=NNC(=O)C1C1CC(c2c[nH]c3ccccc23)=NNC1=O` (centres undefined), the pEC50 is under 3.70 and the pIC50 was 3.81.
The matching figures for `O=C1c2cccc(O)c2C(=O)c2c(O)cccc21`: under 4.52 and under 4.52.
As to `CC(=O)c1sc2c(c1OC(=O)c1ccc(Cl)cc1)c(=O)n(-c1ccccc1)c(=S)n2-c1ccccc1`, the pEC50 was under 3.70 and the negative-log IC50 (pIC50) was 6.11.
On the same counts, the results for `COc1cc(C)c(O)c(C/C=C(\C)CC2=C[C@@]3(C)CCC[C@@]3(C)[C@]3(C=CC(C)(C)O3)O2)c1` are under 4.39 and 4.96.
For `CC(=O)Oc1c(C)cc(-c2cc(C)c(OC(C)=O)c(C)c2)cc1C`, the pEC50 is under 3.70 and the pIC50 was 4.26.
`O=CNc1ccccc1OCCOc1ccccc1NC=O`: the pEC50 was under 3.70 and the pIC50 is under 3.70.
Turning to `CC(C)(N=NC(C)(C)C1=NCCN1)C1=NCCN1`, the pEC50 is under 3.70; the pIC50 is 3.98 and 4.08.
Take `CN1c2ccccc2N=Cc2c1oc1ccc3ccccc3c1c2=O`: the pEC50 is 4.33 and the pIC50 is 4.30.
For `CC(C(=O)O)c1ccc2oc(-c3ccc(Cl)cc3)nc2c1` (centres undefined), the pEC50 was under 3.70 and the pIC50 was under 3.70.
Regarding `O=C(O)C(=Cc1ccc(Br)cc1)C(=O)O`, the pEC50 is under 3.04 and the pIC50 is under 3.04.
In the case of `N#Cc1nc(/C=C/c2nc(C#N)c(N)o2)oc1N`, the pEC50 is under 4.00 and the pIC50 was under 4.00.
In the case of `CC(C)(C)OC(=O)NC(Cc1ccccc1)OCc1ccccc1` (centres undefined), the pEC50 was under 3.70 and the negative logarithm of the IC50 (pIC50) is 4.34.
Regarding `Cc1ccc2nc(C=Nc3ccc(Cl)cc3)cc(C)c2c1`, the result was inactive.
`O=C1C(=O)C(c2ccccc2)S(=O)(=O)C1c1ccccc1` (centres undefined): the outcome was inactive.
For the compound `CCCCC(C(=O)C(=O)Nc1ccc(C)cc1C)C(=O)C(C)C` (centres undefined), the pEC50 is under 3.10 and the negative logarithm of the IC50 (pIC50) is under 3.10.
As for `COC1N(C2CC(F)C(CO)O2)C(=O)NC(=O)C1(C)Br` (centres undefined), the pEC50 is 8.28 and 8.50; the pIC50 is 5.25 and 5.22.
For `CN1C(=S)NC2C(O)C(O)C(CO)OC21` (centres undefined), the pEC50 is under 2.97 and the negative-log IC50 (pIC50) was under 2.97.
In the case of `O=c1nc2[nH]c3c4cccc5cccc(c3nc2c(=O)[nH]1)c54`, the pEC50 is under 3.70 and the pIC50 is 6.22.
As for `CCCCN(CC)CC(C(C)=O)c1c(O)c2ccccc2oc1=O` (centres undefined), the pEC50 was under 4.15 and the pIC50 was under 4.15.
`COc1cc(/C=C2\C(=O)N(c3cccc(NC(C)=O)c3)C(c3ccccc3)S2(=O)=O)cc(OC)c1OC` (centres undefined): the pEC50 was under 3.70 and the pIC50 was 4.06.
On to `COc1cc([C@@H]2c3cc4c(c(O)c3C[C@H]3COC(=O)[C@@H]32)OCO4)cc(OC)c1O`, for which the pEC50 was under 5.49 and the pIC50 was 8.76.
Turning to `COC(=O)C1(C(=O)OC)N=C(C)OC1c1ccoc1` (centres undefined), the pEC50 was under 3.70 and the pIC50 was under 3.70.
Turning to `CC1=CC(=O)c2c(C=O)c(O)c(O)c(C(C)C)c2C1=O`, the pEC50 is under 4.02 and the pIC50 was 5.72.
The matching figures for `Cc1ccc(S(=O)(=O)/C(C#N)=C\NC(=S)N=Nc2c(O)[nH]c3ccccc23)cc1`: under 3.70 and under 3.70.
Regarding `CC1(O)CCC2(CCC(C)(O)CC2=O)C(=O)C1` (centres undefined), the pEC50 was under 3.70 and the pIC50 is under 3.70.
For `Cc1ncc2c(n1)CCC1=C2OS(=O)(=O)CC1N(C)C` (centres undefined), the pEC50 was under 3.70 and the pIC50 was 4.41.
On to `O=C(NCc1ccccc1)c1cc2cc(O)c(O)cc2cn1`, for which the pEC50 was under 3.70; the pIC50 was 5.29 and < 5.08.
`NNc1cn[nH]c(=O)c1Cl`: the pEC50 was under 3.70 and the pIC50 is under 3.70.
For `COc1nc(NC2OC(CO)C(O)C2O)cc(=O)n1C` (centres undefined), the result was inactive.
For `O=C1OC(C2(O)OC(=O)c3ccccc32)c2ccccc21` (centres undefined), the pEC50 is under 3.70 and the pIC50 was under 3.70.
On to `Cc1ccc(C)c(NC(=O)C(=O)Nn2c(=S)[nH]c3ccccc3c2=O)c1`, for which the pEC50 was under 3.30 and the pIC50 was 3.72.
As to `O=c1c2ccccc2c(=O)n2n1CC=CC2`, the outcome was inactive.
With `CCOC(=O)C1=CC(C)(C(=O)OCC)Nc2c(nc(SC)n(C)c2=O)N1` (centres undefined), the pEC50 was under 3.70 and the pIC50 is 3.84.
Turning to `CCn1c(=O)c(C(=O)O)c(Cl)c2cc3c(cc21)OCO3`, the outcome was inactive.
For `CCN(CC)C(=S)SNCCc1ccc(S(N)(=O)=O)cc1`, the pEC50 is under 3.70 and the negative logarithm of the IC50 (pIC50) was 4.98.
For `C[N+](C)(C)CC(=O)N/N=C(/Cc1cc(=O)oc2cc(O)ccc12)C(=O)Nc1ccc(Cl)cc1`, the pEC50 was under 4.29 and the negative-log IC50 (pIC50) is under 4.29.
For `NC(=O)C(=O)N/N=C1/c2ccccc2CC1C1(O)C(=O)Nc2c(Cl)cc(Cl)cc21` (centres undefined), the pEC50 is under 4.92 and the pIC50 was under 4.92.
For `CC(C)(C)OC(=O)N(CCCN)CCCCN`, the pEC50 is under 3.70.
Regarding `O=C(CC1(O)C(=O)Nc2c(Cl)cc(Cl)cc21)c1ccc2ccccc2c1` (centres undefined), the pEC50 is under 4.31 and the negative-log IC50 (pIC50) is 4.69.
With `CC1(CO)COC(=O)C(C)(C2(C)NC(C)(CO)COC2=O)N1` (centres undefined), the pEC50 was under 3.10 and the pIC50 is 4.55.
Take `O=C1C2C=CC1C1C(=O)OC(=O)C21` (centres undefined): the result was inactive.
Turning to `CCCN=C(NNC(N)=O)C(C)=O`, the pEC50 is under 2.87 and the pIC50 was 2.96.
`Cn1nc(/C=C/c2ccccc2)nc2c(=O)n(C)c(=O)nc1-2`: the pEC50 is under 3.70 and the pIC50 is 6.20.

One may read the pEC50 as the negative decadic logarithm of the EC50, by convention in mol/L. The term pIC50 denotes the negative decadic logarithm of the IC50, by convention in mol/L. A higher pIC50 goes with a small IC50.
